Patent US12421208B2, “Chemical compounds” (ASTRAZENECA AB, priority 2020, dated 2025)

Legend:
[1] = biological target: T1, PARP3 (Homo sapiens, UniProt Q9Y6F1); assay: PARP fluorescence anisotropy binding assay, PARP3; settings: recombinant full length PARP3
T1 construct: Recombinant full length PARP3 protein
T1 sequence (Q9Y6F1 1-533): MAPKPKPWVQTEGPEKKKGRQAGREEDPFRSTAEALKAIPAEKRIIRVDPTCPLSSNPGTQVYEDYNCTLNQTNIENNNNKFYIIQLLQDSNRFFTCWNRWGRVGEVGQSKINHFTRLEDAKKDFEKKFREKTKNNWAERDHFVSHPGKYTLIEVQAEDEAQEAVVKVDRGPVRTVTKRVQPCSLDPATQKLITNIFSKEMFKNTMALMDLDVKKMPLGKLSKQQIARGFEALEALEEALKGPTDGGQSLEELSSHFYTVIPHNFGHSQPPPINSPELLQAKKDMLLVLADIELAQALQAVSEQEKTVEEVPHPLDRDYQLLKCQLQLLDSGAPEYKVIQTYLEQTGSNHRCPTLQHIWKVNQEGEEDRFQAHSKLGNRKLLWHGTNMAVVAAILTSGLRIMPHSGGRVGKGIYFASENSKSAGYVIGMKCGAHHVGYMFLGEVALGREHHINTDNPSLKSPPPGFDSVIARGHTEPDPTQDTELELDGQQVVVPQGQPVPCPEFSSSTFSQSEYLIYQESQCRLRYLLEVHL
Excerpt: (§1) PARP Fluorescence Anisotropy Binding Assays

[2] = tested on: MDR1 and BCRP; assay: In vitro human transporter efflux (MDCK-MDR1-BCRP); format: in vitro ADME; settings: human, pH 7.4, Papp(B to A)/Papp(A to B), 1 or 0.1 μM, 90-min incubation
Procedure: In Vitro Human Transporter Efflux
(§5) MDCKII cells expressing MDR1 and BCRP were seeded onto polyethylene membranes in 96-well Transwell insert systems at a density to form a confluent cell monolayer. […] The final percent volume of the organic solvent was less than 1%. Permeation of the test compounds from A to B direction and from B to A direction was determined over a 90-min incubation at 37° C. and 5% CO2 with a relative humidity of 95%. At the end of the incubation, samples from the apical and basolateral side were taken and then precipitated with cold acetonitrile containing internal standard. After centrifugation at 4000 rpm, the supernatant was diluted with 0.1% formic acid aqueous solution and quantified by LC-MS/MS. The integrity of the cell monolayers was confirmed by using the marker Lucifer yellow.
(§6) (1) The efflux ratio was calculated using the following equation Efflux ratio=Papp(B to A)/Papp(A to B)
(§7) (2) where dCr/dt is the cumulative concentration of the compound in the receiver chamber as a function of time (in μM/s); Vr is the solution volume in the receiver chamber (0.1 ml on the apical side and 0.3 ml on the basolateral side); A is the surface area for the transport, that is, 0.11 cm2 for the area of the monolayer; and CO is the initial concentration in the donor chamber (in μM).

[3] = biological target: hERG (Homo sapiens, UniProt Q12809); assay: hERG inhibition
Chain of hERG (Q12809 whole entry): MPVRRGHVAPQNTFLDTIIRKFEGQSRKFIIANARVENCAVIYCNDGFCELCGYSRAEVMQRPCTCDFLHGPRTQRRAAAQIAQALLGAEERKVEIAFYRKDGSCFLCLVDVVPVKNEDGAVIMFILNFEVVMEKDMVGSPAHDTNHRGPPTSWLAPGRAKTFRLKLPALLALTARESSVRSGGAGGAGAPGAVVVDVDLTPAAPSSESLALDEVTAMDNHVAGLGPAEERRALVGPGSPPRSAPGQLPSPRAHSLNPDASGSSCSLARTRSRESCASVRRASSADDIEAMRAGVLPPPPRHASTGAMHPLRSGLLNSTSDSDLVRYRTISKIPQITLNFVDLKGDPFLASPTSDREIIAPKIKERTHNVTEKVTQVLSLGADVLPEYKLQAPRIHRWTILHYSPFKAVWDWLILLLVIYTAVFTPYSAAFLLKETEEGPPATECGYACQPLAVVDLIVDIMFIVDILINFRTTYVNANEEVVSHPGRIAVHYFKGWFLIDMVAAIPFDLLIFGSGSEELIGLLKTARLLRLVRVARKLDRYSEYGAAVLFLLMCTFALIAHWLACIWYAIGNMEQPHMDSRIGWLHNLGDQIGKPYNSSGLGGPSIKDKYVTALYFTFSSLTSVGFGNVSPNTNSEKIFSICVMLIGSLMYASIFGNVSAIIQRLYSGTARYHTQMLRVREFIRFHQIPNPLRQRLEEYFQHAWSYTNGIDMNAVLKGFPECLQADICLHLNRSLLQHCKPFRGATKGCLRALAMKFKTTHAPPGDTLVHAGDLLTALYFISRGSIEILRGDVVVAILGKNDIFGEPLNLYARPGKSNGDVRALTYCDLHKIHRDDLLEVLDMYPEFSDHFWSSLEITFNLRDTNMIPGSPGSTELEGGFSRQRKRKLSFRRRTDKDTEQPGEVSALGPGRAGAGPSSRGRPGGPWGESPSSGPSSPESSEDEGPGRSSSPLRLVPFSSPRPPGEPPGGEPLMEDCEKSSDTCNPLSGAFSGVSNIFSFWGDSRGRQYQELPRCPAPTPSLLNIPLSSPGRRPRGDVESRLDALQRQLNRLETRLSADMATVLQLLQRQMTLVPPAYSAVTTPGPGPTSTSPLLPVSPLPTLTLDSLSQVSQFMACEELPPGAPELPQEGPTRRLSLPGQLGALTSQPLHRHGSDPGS
Excerpt: It is well known that blockade of the cardiac ion channel coded by human ether-n-gogo-related gene (hERG) is a risk factor in drug discovery and development. Blockage of hERG can cause safety problems such as cardiac arrhythmia. Advantageously, the compounds of Formula I have low hERG activity.

[4] = biological target: PARP5a (Homo sapiens, UniProt O95271); assay: PARP fluorescence anisotropy binding assay, PARP5a binding domain; settings: recombinant PARP5a binding domain
Chain of PARP5a (O95271 1112-1317): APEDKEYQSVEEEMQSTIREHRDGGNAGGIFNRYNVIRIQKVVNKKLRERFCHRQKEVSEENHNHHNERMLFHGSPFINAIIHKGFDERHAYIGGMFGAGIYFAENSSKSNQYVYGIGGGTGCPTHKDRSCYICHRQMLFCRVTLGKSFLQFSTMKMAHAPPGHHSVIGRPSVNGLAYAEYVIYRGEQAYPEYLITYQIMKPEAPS
Excerpt: as §1

[5] = biological target: T2, PARP6 (Homo sapiens, UniProt Q2NL67); assay: PARP fluorescence anisotropy binding assay, PARP6; settings: recombinant full length GST tagged PARP6
T2 construct: Recombinant full length GST tagged PARP6 protein; GST
T2 sequence (Q2NL67 whole entry): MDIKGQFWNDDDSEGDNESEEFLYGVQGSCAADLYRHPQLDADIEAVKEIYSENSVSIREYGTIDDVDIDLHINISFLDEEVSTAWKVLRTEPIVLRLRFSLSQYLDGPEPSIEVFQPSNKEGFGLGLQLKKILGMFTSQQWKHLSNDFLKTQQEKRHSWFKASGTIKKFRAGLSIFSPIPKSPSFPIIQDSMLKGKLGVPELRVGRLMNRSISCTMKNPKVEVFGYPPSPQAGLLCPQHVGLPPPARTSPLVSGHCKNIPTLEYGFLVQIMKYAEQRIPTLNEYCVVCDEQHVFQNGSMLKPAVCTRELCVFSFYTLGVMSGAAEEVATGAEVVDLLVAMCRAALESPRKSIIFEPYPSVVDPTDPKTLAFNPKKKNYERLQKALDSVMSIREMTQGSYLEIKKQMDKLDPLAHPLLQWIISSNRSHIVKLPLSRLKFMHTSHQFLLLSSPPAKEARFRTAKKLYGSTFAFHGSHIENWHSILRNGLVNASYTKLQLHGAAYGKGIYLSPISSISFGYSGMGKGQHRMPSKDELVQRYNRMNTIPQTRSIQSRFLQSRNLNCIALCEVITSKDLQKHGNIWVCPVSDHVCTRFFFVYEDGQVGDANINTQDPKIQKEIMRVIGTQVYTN
Procedure: as §1
(§2) Recombinant full length GST tagged PARP6 protein was diluted to 160 nM with 50 mM Tris pH 8, 0.001% Triton X100, 10 mM MgCl2, 150 mM NaCl and incubated for four hours with an equivalent volume of 6 nM fluorescent probe diluted with 50 mM Tris pH 8, 0.001% Triton X100, 10 mM MgCl2, 150 mM NaCl. The final DMSO concentration of the probe was kept below 1% (v/v).
Fluorescence anisotropy of the probe when bound to the proteins was measured using a BMG Pherastar FSX© in the presence of test compounds or solvent control and the effect on anisotropy determined. % inhibition values for different test compound concentrations were calculated and fitted to a four parameter logistic plot in order to determine the IC50 value. Where necessary, the compound Ki can be determined from the IC50 value using a Munson Rodbard equation defined in Anal Biochem. 1980 Sep. 1; 107(1):220-39 and is based on the known KD of the probe binding to the relevant PARP protein

[6] = tested on: BRCA2 (−/−) DLD1 cells; assay: PARP proliferation assay (7 day compound dosing), BRCA2 (−/−) DLD1; format: cell-based; settings: BRCA2 −/− DLD-1 cells, 7 day dosing; read-out: BRCA2 −/− DLD-1 prolif. 7 d IC50
Procedure: (§3) PARP Proliferation Assay (7 Day Compound Dosing)
(§4) DLD1 and BRCA2 (−/−) DLD1 cells were harvested to a density of 5000 cells/ml and 2.5E4 cells/ml respectively in complete media, 40 μL/well seeded into 384-well plates (Greiner, Kremsmunster, Austria; 781090) using a Multidrop Combi then incubated at 37° C., 5% CO2 overnight. Next day (Day 1) using a Multidrop Combi add sytoxgreen (5 ul, 2 uM) and saponin (10 ul, 0.25% stock) to a day 0 plate, seal the plate using a black adhesive lid and incubate for >3 h at rt. Cells were imaged using Cell Insight (Thermo Fisher) fitted with a 4× objective. Test compounds are added using an Echo 555 and placed in incubator maintained at 37° C., 5% CO2 and incubated for 7 days. On Day 8 add sytox green (5 ul, 2 uM) and then saponin (10 ul, 0.25% stock) to plates, seal the plate using a black adhesive lid and incubate for >3 h at rt. Read all cells on the Cell Insight with 4× Objective. The rate of proliferation is determined in Genedata by assessing the total cell number output from the Cell Insight for Day 0 and Day 8 plates.

[7] = biological target: T3, PARP1 (Homo sapiens, UniProt P09874); assay: PARP fluorescence anisotropy binding assay, PARP1; settings: recombinant full length 6HIS tagged PARP1
T3 construct: Recombinant full length 6HIS tagged PARP1 protein; 6HIS
T3 sequence (P09874 whole entry): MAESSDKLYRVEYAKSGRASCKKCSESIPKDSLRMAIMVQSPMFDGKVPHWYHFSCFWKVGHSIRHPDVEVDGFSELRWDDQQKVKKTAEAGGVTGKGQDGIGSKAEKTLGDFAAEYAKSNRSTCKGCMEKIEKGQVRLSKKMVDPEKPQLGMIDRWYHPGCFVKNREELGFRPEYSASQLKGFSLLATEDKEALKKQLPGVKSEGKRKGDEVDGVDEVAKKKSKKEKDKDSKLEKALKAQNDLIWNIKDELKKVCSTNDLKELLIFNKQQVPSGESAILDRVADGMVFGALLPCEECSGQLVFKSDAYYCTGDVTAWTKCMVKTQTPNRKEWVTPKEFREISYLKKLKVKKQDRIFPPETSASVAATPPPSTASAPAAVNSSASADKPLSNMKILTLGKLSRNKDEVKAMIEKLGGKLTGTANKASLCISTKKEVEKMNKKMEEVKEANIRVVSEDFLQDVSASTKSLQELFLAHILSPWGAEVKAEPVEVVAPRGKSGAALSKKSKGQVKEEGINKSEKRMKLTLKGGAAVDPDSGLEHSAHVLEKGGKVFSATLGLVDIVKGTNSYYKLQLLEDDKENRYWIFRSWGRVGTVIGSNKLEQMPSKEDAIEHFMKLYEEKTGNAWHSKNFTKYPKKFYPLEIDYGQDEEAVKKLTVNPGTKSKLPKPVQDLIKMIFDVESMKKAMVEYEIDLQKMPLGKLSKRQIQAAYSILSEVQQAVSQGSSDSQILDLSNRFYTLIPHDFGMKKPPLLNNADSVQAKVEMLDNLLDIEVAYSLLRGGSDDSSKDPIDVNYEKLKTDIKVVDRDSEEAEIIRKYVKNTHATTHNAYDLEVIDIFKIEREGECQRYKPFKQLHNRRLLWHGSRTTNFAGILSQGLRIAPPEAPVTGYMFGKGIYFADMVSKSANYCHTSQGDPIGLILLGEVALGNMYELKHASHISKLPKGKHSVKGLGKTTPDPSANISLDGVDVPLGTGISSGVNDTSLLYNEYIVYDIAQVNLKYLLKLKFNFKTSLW
Procedure: Recombinant full length 6HIS tagged PARP1 protein was diluted to 6 nM with 50 mM Tris pH 8, 0.001% Triton X100, 10 mM MgCl2, 150 mM NaCl and incubated for four hours with an equivalent volume of 2 nM fluorescent probe diluted with 50 mM Tris pH 8, 0.001% Triton X100, 10 mM MgCl2, 150 mM NaCl. The final DMSO concentration of the probe was kept below 1% (v/v).

[8] = tested on: MDCKII cells expressing MDR1 and BCRP; assay: In vitro human transporter efflux (MDCK-MDR1-BCRP); format: in vitro ADME; settings: Papp(B to A)/Papp(A to B), 1 or 0.1 μM, 90-min incubation
Procedure: In Vitro Human Transporter Efflux
as §5, §6, §7

[9] = biological target: T4, PARP2 (Homo sapiens, UniProt Q9UGN5); assay: PARP fluorescence anisotropy binding assay, PARP2; settings: recombinant full length PARP2
T4 construct: Recombinant full length PARP2 protein
T4 sequence (Q9UGN5 whole entry): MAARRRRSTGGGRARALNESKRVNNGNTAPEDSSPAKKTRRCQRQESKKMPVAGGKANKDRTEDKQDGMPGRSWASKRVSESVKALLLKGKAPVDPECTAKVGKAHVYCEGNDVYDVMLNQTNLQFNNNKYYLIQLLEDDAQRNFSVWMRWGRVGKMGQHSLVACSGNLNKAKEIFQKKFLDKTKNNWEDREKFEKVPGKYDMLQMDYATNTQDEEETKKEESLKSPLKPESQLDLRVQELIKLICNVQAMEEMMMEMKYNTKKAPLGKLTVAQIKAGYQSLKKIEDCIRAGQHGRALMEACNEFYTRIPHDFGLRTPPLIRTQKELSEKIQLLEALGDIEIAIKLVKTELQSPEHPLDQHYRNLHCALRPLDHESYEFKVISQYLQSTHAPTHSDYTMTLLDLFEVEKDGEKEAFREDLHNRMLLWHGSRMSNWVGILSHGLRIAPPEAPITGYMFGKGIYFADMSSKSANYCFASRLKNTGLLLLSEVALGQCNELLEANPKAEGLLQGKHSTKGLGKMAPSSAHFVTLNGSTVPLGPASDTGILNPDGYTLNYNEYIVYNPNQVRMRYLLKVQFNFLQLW
Procedure: as §1
as §2, with “PARP2” for “GST tagged PARP6”, “6” for “160”, “2” for “6”
Fluorescence anisotropy of the probe when bound to the proteins was measured using a BMG Pherastar FSX© in the presence of test compounds or solvent control and the effect on anisotropy determined. % inhibition values for different test compound concentrations were calculated and fitted to a four parameter logistic plot in order to determine the IC50 value.

[10] = tested on: DLD1 cells; assay: PARP proliferation assay (7 day compound dosing), WT DLD1; format: cell-based; settings: Homo sapiens, 168 h; WT DLD-1 cells, 7 day dosing; read-out: WT DLD-1 prolif. 7 d IC50
Procedure: as §3, §4

| IC50 [1] [µM] | efflux ratio at 90 min [2] | IC50 [4] [µM] | IC50 [5] [µM] | IC50 [6] [nM] | IC50 [7] [nM] | MDCK-MDR1-BCRP Efflux Ratio [8] | IC50 [9] [µM] | IC50 [10] [µM] | SMILES | IC50 [3] [µM] |
| --- | --- | --- | --- | --- | --- | --- | --- | --- | --- | --- |
| 85 | 4.2 | > 100 | > 100 | 8 | 15 |  |  |  | CNC(=O)c1ccc(N2CCN(Cc3ccc4nc(C(C)F)c(=O)[nH]c4c3F)CC2)c(F)n1 (single isomer, unassigned) [Example 12, 6-fluoro-5-[4-[[5-fluoro-2-[(1S OR 1R)-1-fluoroethyl]-3-oxo-4H-quinoxalin-6-yl]methyl]piperazin-1-yl]-N-methyl-pyridine-2-carboxamide] | > 40 |
| 62 |  | > 100 | > 100 | 19 | 9 | 3.0 | > 100 | 22 | CNC(=O)c1ccc(N2CCN(Cc3ccc4nc(C(C)F)c(=O)[nH]c4c3F)CC2)c(F)n1 (single isomer, unassigned) [Example 13, 6-fluoro-5-[4-[[5-fluoro-2-[(1S OR 1R)-1-fluoroethyl]-3-oxo-4H-quinoxalin-6-yl]methyl]piperazin-1-yl]-N-methyl-pyridine-2-carboxamide] | > 40 |
